Data from PubChem BioAssay AID1963959 (Molecular Pharmacology Branch, DTP, NCI, 2024).

Tested on: T-47D spheroids with HUVEC/MSC, viability
Experiment: Anticancer human tumor T-47D cell line growth inhibition [PI3K];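 also: spheroids exposed to agents for seven days before reading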;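 as to viability, T/C: percent of DMSO vehicle control luminescence so 100% = untreated growth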
Conditions: for IC50: curve of first compound; for viability, T/C: stronger effect = lower value
Method in brief: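 Combination activity was assessed by viability in multicellular tumor spheroids carrying HUVEC and MSC components. Agents were tested with PI3K inhibitors from a Cmax-based top dose (or 10 microM) downward in half-log increments.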

[1] = second compound 0.00316 µM, first compound 0.0316 µM
[2] = second compound 0.00316 µM, first compound 0.1 µM
[3] = second compound 0.00316 µM, first compound 0.316 µM
[4] = second compound 0.00316 µM, first compound 1 µM
[5] = second compound 0.01 µM, first compound 0.0316 µM
[6] = second compound 0.01 µM, first compound 0.1 µM
[7] = second compound 0.01 µM, first compound 0.316 µM
[8] = second compound 0.01 µM, first compound 1 µM
[9] = second compound 0.0316 µM, first compound 0.0316 µM
[10] = second compound 0.0316 µM, first compound 0.1 µM
[11] = second compound 0.0316 µM, first compound 0.316 µM
[12] = second compound 0.0316 µM, first compound 1 µM
[13] = second compound 0.1 µM, first compound 0.0316 µM
[14] = second compound 0.1 µM, first compound 0.1 µM
[15] = second compound 0.1 µM, first compound 0.316 µM
[16] = second compound 0.1 µM, first compound 1 µM
[17] = second compound 0.316 µM, first compound 0.0316 µM
[18] = second compound 0.316 µM, first compound 0.1 µM
[19] = second compound 0.316 µM, first compound 0.316 µM
[20] = second compound 0.316 µM, first compound 1 µM
[21] = second compound 1 µM, first compound 0.0316 µM
[22] = second compound 1 µM, first compound 0.1 µM
[23] = second compound 1 µM, first compound 0.316 µM
[24] = second compound 1 µM, first compound 1 µM

Q: With `CCN1CCN(Cc2ccc(Nc3ncc(F)c(-c4cc(F)c5nc(C)n(C(C)C)c5c4)n3)nc2)CC1` + COc1c(OCCCN2CCOCC2)ccc2c3n(c(=NC(=O)c4cnc(N)nc4)nc12)CCN3 as the compound, how does the IC50 (second compound 0.00316 µM) read?
A: > 1000 nM

Q: And the IC50 (second compound 0.01 µM)?
A: > 1000 nM

Q: And the IC50 (second compound 0.0316 µM)?
A: 8.3 nM

Q: And the IC50 (second compound 0.1 µM)?
A: < 3.16 nM

Q: What about the IC50 (second compound 0.316 µM) of the same compound?
A: < 3.16 nM

Q: What about the IC50 (second compound 1 µM) of the same compound?
A: < 3.16 nM

Q: What about the viability, T/C (second compound 0.00316 µM, first compound 0.00316 µM) of the same compound?
A: 81.5%

Q: And the viability, T/C (second compound 0.00316 µM, first compound 0.01 µM)?
A: 77.9%

Q: What about the viability, T/C [1] of the same compound?
A: 83.2%

Q: And the viability, T/C [2]?
A: 74.8%

Q: What about the viability, T/C [3] of the same compound?
A: 73.2%

Q: And the viability, T/C [4]?
A: 88.6%

Q: What about the viability, T/C (second compound 0.01 µM, first compound 0.00316 µM) of the same compound?
A: 99.1%

Q: What about the viability, T/C (second compound 0.01 µM, first compound 0.01 µM) of the same compound?
A: 75.3%

Q: What about the viability, T/C [5] of the same compound?
A: 70.5%

Q: And the viability, T/C [6]?
A: 71.5%

Q: What about the viability, T/C [7] of the same compound?
A: 67.6%

Q: What about the viability, T/C [8] of the same compound?
A: 72.5%

Q: And the viability, T/C (second compound 0.0316 µM, first compound 0.00316 µM)?
A: 64%

Q: What about the viability, T/C (second compound 0.0316 µM, first compound 0.01 µM) of the same compound?
A: 47.8%

Q: And the viability, T/C [9]?
A: 41.2%

Q: What about the viability, T/C [10] of the same compound?
A: 43.4%

Q: And the viability, T/C [11]?
A: 44.6%

Q: And the viability, T/C [12]?
A: 56.5%

Q: What about the viability, T/C (second compound 0.1 µM, first compound 0.00316 µM) of the same compound?
A: 41.3%

Q: What about the viability, T/C (second compound 0.1 µM, first compound 0.01 µM) of the same compound?
A: 25.1%

Q: What about the viability, T/C [13] of the same compound?
A: 27.7%

Q: And the viability, T/C [14]?
A: 24.4%

Q: What about the viability, T/C [15] of the same compound?
A: 29%

Q: What about the viability, T/C [16] of the same compound?
A: 45.3%

Q: And the viability, T/C (second compound 0.316 µM, first compound 0.00316 µM)?
A: 13%

Q: And the viability, T/C (second compound 0.316 µM, first compound 0.01 µM)?
A: 12.3%

Q: And the viability, T/C [17]?
A: 14.8%

Q: What about the viability, T/C [18] of the same compound?
A: 16.3%

Q: And the viability, T/C [19]?
A: 23.4%

Q: What about the viability, T/C [20] of the same compound?
A: 34.4%

Q: And the viability, T/C (second compound 1 µM, first compound 0.00316 µM)?
A: 6.17%

Q: What about the viability, T/C (second compound 1 µM, first compound 0.01 µM) of the same compound?
A: 5.48%

Q: And the viability, T/C [21]?
A: 7.16%

Q: What about the viability, T/C [22] of the same compound?
A: 6.14%

Q: What about the viability, T/C [23] of the same compound?
A: 12.2%

Q: What about the viability, T/C [24] of the same compound?
A: 24.2%

Q: How did the IC50 (second compound 0.00316 µM) turn out when `CC1(C)CCC(CN2CCN(c3ccc(C(=O)NS(=O)(=O)c4ccc(NCC5CCOCC5)c([N+](=O)[O-])c4)c(Oc4cnc5[nH]ccc5c4)c3)CC2)=C(c2ccc(Cl)cc2)C1` + CC(Nc1ccc2c(c1)OCCn1cc(N3C(=O)OCC3C(F)F)nc1-2)C(N)=O was run?
A: > 10000 nM

Q: And the IC50 (second compound 0.01 µM)?
A: > 10000 nM

Q: And the IC50 (second compound 0.0316 µM)?
A: > 10000 nM

Q: What about the IC50 (second compound 0.1 µM) of the same compound?
A: > 10000 nM

Q: And the IC50 (second compound 0.316 µM)?
A: > 10000 nM

Q: What about the IC50 (second compound 1 µM) of the same compound?
A: 4160 nM

Q: And the viability, T/C [1]?
A: 101%

Q: What about the viability, T/C [2] of the same compound?
A: 97.2%

Q: And the viability, T/C [3]?
A: 98.9%

Q: And the viability, T/C [4]?
A: 89.8%

Q: What about the viability, T/C (second compound 0.00316 µM, first compound 3.16 µM) of the same compound?
A: 76.3%

Q: What about the viability, T/C (second compound 0.00316 µM, first compound 10 µM) of the same compound?
A: 78.9%

Q: What about the viability, T/C [5] of the same compound?
A: 90.1%

Q: And the viability, T/C [6]?
A: 81.5%

Q: What about the viability, T/C [7] of the same compound?
A: 93.7%

Q: And the viability, T/C [8]?
A: 91.6%

Q: And the viability, T/C (second compound 0.01 µM, first compound 3.16 µM)?
A: 79.5%

Q: And the viability, T/C (second compound 0.01 µM, first compound 10 µM)?
A: 69.7%

Q: What about the viability, T/C [9] of the same compound?
A: 87.3%

Q: And the viability, T/C [10]?
A: 94%

Q: And the viability, T/C [11]?
A: 103%

Q: And the viability, T/C [12]?
A: 75.5%

Q: And the viability, T/C (second compound 0.0316 µM, first compound 3.16 µM)?
A: 87%

Q: And the viability, T/C (second compound 0.0316 µM, first compound 10 µM)?
A: 65.5%

Q: And the viability, T/C [13]?
A: 77.6%

Q: And the viability, T/C [14]?
A: 76.3%

Q: And the viability, T/C [15]?
A: 89.6%

Q: And the viability, T/C [16]?
A: 87.5%

Q: And the viability, T/C (second compound 0.1 µM, first compound 3.16 µM)?
A: 89.5%

Q: What about the viability, T/C (second compound 0.1 µM, first compound 10 µM) of the same compound?
A: 53.4%

Q: And the viability, T/C [17]?
A: 65.5%

Q: And the viability, T/C [18]?
A: 79.2%

Q: And the viability, T/C [19]?
A: 69.7%

Q: And the viability, T/C [20]?
A: 61.4%

Q: What about the viability, T/C (second compound 0.316 µM, first compound 3.16 µM) of the same compound?
A: 72.9%

Q: And the viability, T/C (second compound 0.316 µM, first compound 10 µM)?
A: 52.1%

Q: And the viability, T/C [21]?
A: 52.9%

Q: What about the viability, T/C [22] of the same compound?
A: 54.5%

Q: What about the viability, T/C [23] of the same compound?
A: 61%

Q: What about the viability, T/C [24] of the same compound?
A: 57.2%

Q: And the viability, T/C (second compound 1 µM, first compound 3.16 µM)?
A: 53%

Q: And the viability, T/C (second compound 1 µM, first compound 10 µM)?
A: 38.3%
